Laboratory results taken from PubChem BioAssay (NCI).
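How tested: cells in 96-well plates exposed to compound for 48 hours at five concentrations. GI50: concentration for 50% inhibition of growth. TGI is the concentration that stops growth completely.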

system: MDA-MB-468 breast; assay: DTP human tumour cell line panel, 48 h

Point of comparison: `NC(N)=NC(N)=NCCCc1ccco1`, GI50 81.8 µM. Against it:
- Cn1c(-c2ccccc2)c(/C=C/C2=[N+](C)c3ccccc3C2(C)C)c2ccccc21 — 240-fold lower, 0.343 µM
- Cc1cc(OCCOCCC(F)(F)P(=O)(O)O)ccc1CCc1cnc2c(N)nc3cc(CCC(=O)O)ccc3c2c1 — higher, > 100 µM
- C=C1C(=O)O[C@H]2[C@H]1CC/C(COC(=O)CCCc1c[nH]c3ccccc13)=C\CC[C@@]1(C)O[C@@H]21 — 46-fold lower, 1.76 µM
- C=C1C(=O)O[C@H]2[C@H]1CC/C(COC(=O)OC/C1=C/CC[C@@]3(C)O[C@H]3[C@H]3OC(=O)[C@@H](CN(C)C)[C@@H]3CC1)=C\CC[C@@]1(C)O[C@@H]21 — 61-fold lower, 1.35 µM
- N#C/C(=N\Nc1ccccc1)C(=O)Nc1cc(-c2ccccc2)nn1-c1ccccc1 — 58-fold lower, 1.42 µM
- C[C@H]1COCCN1c1cc(C2(S(=O)(=O)C3CC3)CC2)nc(-c2ccc(NC(=S)NCCO)cc2)n1 — lower, < 0.0108 µM
- Cn1ccnc1C(=O)/C=C/c1ccc(CNC(=O)c2ccc(S(F)(F)(F)(F)F)cc2)cc1 — 23-fold lower, 3.54 µM
- COC(=O)c1c2c(c(C)[n+]([O-])c1C)C(=O)C=C(NCc1cccc(Cl)c1)C2=O — 360-fold lower, 0.225 µM
- COc1ccc(/C(C#N)=C/c2cc(OC)c(OC)c(OC)c2)cc1 — 4.3-fold lower, 19.2 µM
- C=C1SC(=Nc2ccccc2Cl)N(C(=O)c2sc3ccccc3c2Cl)C12CCCCC2 — 17-fold lower, 4.91 µM
- CC(C)=CC(=O)N[C@H]1CC[C@]2(C)C3CC[C@]4(C)C(C(C)N(C)C)=CCC4C3CCC2[C@H]1O (some centres undefined) — 50-fold lower, 1.65 µM
- CCCCCCCC(=O)SCC/C=C/[C@@H]1CC(=O)NCc2nc(cs2)C2=N[C@@](C)(CS2)C(=O)N[C@@H](C(C)C)C(=O)N1 — lower, < 0.0119 µM
- C[C@]12CC[C@H]3[C@@H](CC4SC(N)=NC45C/C(=N/NC(N)=O)CC[C@]35C)[C@@H]1CCC2=O (some centres undefined) — 51-fold lower, 1.6 µM
- O=C(/C=C1\C(=O)N(Cc2ccccc2)c2ccccc21)c1ccc(OCCN2CCCCC2)cc1 — 43-fold lower, 1.92 µM
- C=C1C(=O)O[C@H]2[C@H]1CC/C(Cn1cc(-c3ccc(F)cc3)nn1)=C\CC[C@@]1(C)O[C@@H]21 — 190-fold lower, 0.421 µM
- CCCCCCCCCCCCCCCCOP(=O)([O-])OCC[N+](C)(C)C — 71-fold lower, 1.16 µM
- C[n+]1c2ccccc2nc2ccccc21 — 120-fold lower, 0.711 µM
- Cc1ccc2c(c1)C(=O)c1c-2c(OCCCN(C)C)nc2ccccc12 — 57-fold lower, 1.43 µM
- O=C(Nc1ccc(F)cc1)Nc1ccc(Br)c(C(F)(F)F)c1 — 37-fold lower, 2.22 µM
- Cn1nc(C(F)(F)F)c(-c2cc(C(F)(F)F)cc(C(F)(F)F)c2)c1-c1ccc(OCc2ccc(Cl)cc2)cc1O — 57-fold lower, 1.43 µM
- CCCCCCCCCCCCCC[n+]1ccc(C(N)=O)cc1 — 200-fold lower, 0.401 µM
- O=C(CI)Nc1ccc(O)c2ccccc12 — 91-fold lower, 0.9 µM
- O=C1C(=O)c2ccccc2C(O)=C1CCCc1ccc(C2CCCCC2)cc1 — 37-fold lower, 2.2 µM
- CN(C)CCCC1(c2ccc(F)cc2)OCc2cc(-c3cc4ccccc4s3)ccc21 (centres undefined) — 47-fold lower, 1.74 µM
- O=CN1N=C(c2cccc(Nc3ccnc4cc(Cl)ccc34)c2)CC1c1ccccc1 (centres undefined) — 400-fold lower, 0.205 µM
- Clc1ccc2nc(CI)c(CI)nc2c1 — 17-fold lower, 4.7 µM
- Nc1nc2cc(CC[C@H]3C[C@@H](n4ccc5c(N)ncnc54)[C@H](O)[C@@H]3O)ccc2cc1Br — 350-fold lower, 0.234 µM
- COC(=O)Nc1nc2ccc(C(=O)c3ccccc3)cc2[nH]1 — 240-fold lower, 0.338 µM
- COc1ccc(/C=C2\SC(=Nc3ccccc3)NC2=O)cc1 — 26-fold lower, 3.18 µM
- CC([C@H]1CC=C2C3CCC4=C[C@@H](N(C)C)CC[C@]4(C)C3CC[C@@]21C)N(C)C (some centres undefined) — 58-fold lower, 1.42 µM
- C[C@H]1CNC(=O)c2cnn3ccc(nc23)N[C@H](C)c2cc(F)ccc2O1 — 44-fold lower, 1.85 µM
- COc1ccc(NC(=O)c2sc3nc(C)c(C(=O)/C=C/c4cccc(OC)c4)cc3c2N)cc1 — 110-fold lower, 0.732 µM
- COC1=CC(c2ccc[nH]2)=N/C1=C\c1[nH]c(C)c(CC(=O)OCc2ccccc2)c1C — 140-fold lower, 0.595 µM
- CC(=O)O[C@H]1C(=O)[C@@]2(C)[C@H]([C@H](OC(=O)c3ccccc3)[C@]3(O)C[C@H](OC(=O)[C@H](OC(=O)OC[C@H]4COC(C)(C)O4)[C@@H](NC(=O)c4ccccc4)c4ccccc4)C(C)=C1C3(C)C)[C@]1(OC(C)=O)CO[C@@H]1C[C@@H]2O — 3000-fold lower, 0.0273 µM

Point of comparison: `O=CN1N=C(c2cccc(Nc3ccnc4cc(Cl)ccc34)c2)CC1c1ccccc1` (centres undefined), TGI 0.656 µM. Against it:
- Cn1c(-c2ccccc2)c(/C=C/C2=[N+](C)c3ccccc3C2(C)C)c2ccccc21 — 4.3-fold higher, 2.85 µM
- Cc1cc(OCCOCCC(F)(F)P(=O)(O)O)ccc1CCc1cnc2c(N)nc3cc(CCC(=O)O)ccc3c2c1 — higher, > 100 µM
- NC(N)=NC(N)=NCCCc1ccco1 — 300-fold higher, 196 µM
- C=C1C(=O)O[C@H]2[C@H]1CC/C(COC(=O)CCCc1c[nH]c3ccccc13)=C\CC[C@@]1(C)O[C@@H]21 — 6.1-fold higher, 4.01 µM
- C=C1C(=O)O[C@H]2[C@H]1CC/C(COC(=O)OC/C1=C/CC[C@@]3(C)O[C@H]3[C@H]3OC(=O)[C@@H](CN(C)C)[C@@H]3CC1)=C\CC[C@@]1(C)O[C@@H]21 — 6.1-fold higher, 4 µM
- N#C/C(=N\Nc1ccccc1)C(=O)Nc1cc(-c2ccccc2)nn1-c1ccccc1 — 9-fold higher, 5.88 µM
- C[C@H]1COCCN1c1cc(C2(S(=O)(=O)C3CC3)CC2)nc(-c2ccc(NC(=S)NCCO)cc2)n1 — 7-fold lower, 0.0936 µM
- Cn1ccnc1C(=O)/C=C/c1ccc(CNC(=O)c2ccc(S(F)(F)(F)(F)F)cc2)cc1 — 13-fold higher, 8.71 µM
- COC(=O)c1c2c(c(C)[n+]([O-])c1C)C(=O)C=C(NCc1cccc(Cl)c1)C2=O — within 1.5-fold, 0.732 µM
- COc1ccc(/C(C#N)=C/c2cc(OC)c(OC)c(OC)c2)cc1 — higher, > 100 µM
- C=C1SC(=Nc2ccccc2Cl)N(C(=O)c2sc3ccccc3c2Cl)C12CCCCC2 — higher, > 100 µM
- CC(C)=CC(=O)N[C@H]1CC[C@]2(C)C3CC[C@]4(C)C(C(C)N(C)C)=CCC4C3CCC2[C@H]1O (some centres undefined) — 9.6-fold higher, 6.33 µM
- CCCCCCCC(=O)SCC/C=C/[C@@H]1CC(=O)NCc2nc(cs2)C2=N[C@@](C)(CS2)C(=O)N[C@@H](C(C)C)C(=O)N1 — 1.8-fold higher, 1.21 µM
- C[C@]12CC[C@H]3[C@@H](CC4SC(N)=NC45C/C(=N/NC(N)=O)CC[C@]35C)[C@@H]1CCC2=O (some centres undefined) — 4.8-fold higher, 3.17 µM
- O=C(/C=C1\C(=O)N(Cc2ccccc2)c2ccccc21)c1ccc(OCCN2CCCCC2)cc1 — 5.8-fold higher, 3.8 µM
- C=C1C(=O)O[C@H]2[C@H]1CC/C(Cn1cc(-c3ccc(F)cc3)nn1)=C\CC[C@@]1(C)O[C@@H]21 — 2.4-fold higher, 1.58 µM
- CCCCCCCCCCCCCCCCOP(=O)([O-])OCC[N+](C)(C)C — 5.4-fold higher, 3.56 µM
- C[n+]1c2ccccc2nc2ccccc21 — 4.1-fold higher, 2.69 µM
- Cc1ccc2c(c1)C(=O)c1c-2c(OCCCN(C)C)nc2ccccc12 — 5.1-fold higher, 3.35 µM
- O=C(Nc1ccc(F)cc1)Nc1ccc(Br)c(C(F)(F)F)c1 — 15-fold higher, 9.54 µM
- Cn1nc(C(F)(F)F)c(-c2cc(C(F)(F)F)cc(C(F)(F)F)c2)c1-c1ccc(OCc2ccc(Cl)cc2)cc1O — 9.7-fold higher, 6.36 µM
- CCCCCCCCCCCCCC[n+]1ccc(C(N)=O)cc1 — 4.2-fold higher, 2.76 µM
- O=C(CI)Nc1ccc(O)c2ccccc12 — 3.9-fold higher, 2.57 µM
- O=C1C(=O)c2ccccc2C(O)=C1CCCc1ccc(C2CCCCC2)cc1 — 33-fold higher, 21.5 µM
- CN(C)CCCC1(c2ccc(F)cc2)OCc2cc(-c3cc4ccccc4s3)ccc21 (centres undefined) — 5.2-fold higher, 3.41 µM
- Clc1ccc2nc(CI)c(CI)nc2c1 — 29-fold higher, 19.1 µM
- Nc1nc2cc(CC[C@H]3C[C@@H](n4ccc5c(N)ncnc54)[C@H](O)[C@@H]3O)ccc2cc1Br — 12-fold higher, 7.98 µM
- COC(=O)Nc1nc2ccc(C(=O)c3ccccc3)cc2[nH]1 — higher, > 100 µM
- COc1ccc(/C=C2\SC(=Nc3ccccc3)NC2=O)cc1 — 34-fold higher, 22 µM
- CC([C@H]1CC=C2C3CCC4=C[C@@H](N(C)C)CC[C@]4(C)C3CC[C@@]21C)N(C)C (some centres undefined) — 7.2-fold higher, 4.72 µM
- C[C@H]1CNC(=O)c2cnn3ccc(nc23)N[C@H](C)c2cc(F)ccc2O1 — 22-fold higher, 14.6 µM
- COc1ccc(NC(=O)c2sc3nc(C)c(C(=O)/C=C/c4cccc(OC)c4)cc3c2N)cc1 — 3.4-fold higher, 2.24 µM
- COC1=CC(c2ccc[nH]2)=N/C1=C\c1[nH]c(C)c(CC(=O)OCc2ccccc2)c1C — 3.7-fold higher, 2.45 µM
